From patent publication US9643999B2 (Bristol-Myers Squibb Company, priority 2012, dated 2017) come the findings set out here.

The test system of one assay is HCV genotype 1a replicon. Description: HCV replicon luciferase reporter assay, genotype 1a (LE_1a). It counts as cell-based. The following applies: Hepatitis C virus, 72 h, HUH-7 cells, genotype 1a H77 replicon, 3 days incubation, Renilla luciferase.
In a further assay the test system is HCV genotype 1b replicon. Description: HCV replicon luciferase reporter assay, genotype 1b (LE_1b). It counts as cell-based. The note with it: Hepatitis C virus, 72 h, HUH-7 cells, genotype 1b (Con1) replicon, 3 days incubation, Renilla luciferase. In outline:
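HUH-7 cells stably carrying Renilla luciferase replicons (1b Con1 with S1179I; 1a H77 with P1496L and S2204I), 3.0×10^3 cells/well in 4% FCS, 0.5% DMSO, twenty-point 3-fold titration. After 3 days at 37° C., luminescence read with EnduRen (7.5 μM final, 2 hrs). EC50 from four-parameter logistic fit; CC50 from multiplexed Cell Titer-Blue (8 hrs).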

Molecules are shown by their SMILES. Read-outs that look alike come from different tables or passages of the source.

With `C[C@@H]1CC/C=C\[C@@H]2C[C@@]2(C(=O)NS(=O)(=O)C2(C)CC2)NC(=O)[C@@H]2C[C@@H](Oc3nccc4c5c(ccc34)CCO5)CN2C(=O)[C@@H](NC(=O)OC(C)(C)C)[C@H](C)C1` [Compound 5491, tert-butyl((2R,6S,7R,9R,13aS,14aR,16aS,Z)-2-((2,3-dihydrofuro[2,3-f]isoquinolin-6-yl)oxy)-7,9-dimethyl-14a-(((1-methylcyclopropyl)sulfonyl)carbamoyl)-5,16-dioxo-1,2,3,5,6,7,8,9,10,11,13a,14,14a,15,16,16a-hexadecahydrocyclopropa[e]pyrrolo[1,2-a][1,4]diazacyclopentadecin-6-yl)carbamate], the EC50 with HCV genotype 1a replicon (read-out: LE_1a (EC50)) was 5.41 nM; in the assay with HCV genotype 1a replicon (read-out: LE_1a (EC50, range)) it was 5.01 to 35 nM; with HCV genotype 1b replicon (read-out: LE_1b (EC50)) it was 2.57 nM; with HCV genotype 1b replicon (read-out: LE_1b (EC50, range)), 1.01 to 5 nM.

Turning to `CC[C@@H]1C[C@H](C)CC/C=C\[C@@H]2C[C@@]2(C(=O)NS(=O)(=O)C2(C)CC2)NC(=O)[C@@H]2C[C@@H](Oc3nccc4c5c(ccc34)CCO5)CN2C(=O)[C@H]1NC(=O)OC(C)(C)C(F)(F)F` [Compound 5500], the EC50 in the assay on HCV genotype 1a replicon (read-out: LE_1a (EC50, range)) fell in the range of 5.01 to 35 nM; in the assay on HCV genotype 1b replicon (read-out: LE_1b (EC50, range)), 5.01 to 35 nM.

On to `CC[C@@H]1C[C@H](C)CC/C=C\[C@@H]2C[C@@]2(C(=O)NS(=O)(=O)C2CC2)NC(=O)[C@@H]2C[C@@H](Oc3ncc(-c4nc(C(C)(C)C)cs4)c4cc(OC)ccc34)CN2C(=O)[C@H]1NC(=O)OC(C)(C)C(F)(F)F` [Compound 4288], for which the EC50 in the assay with HCV genotype 1a replicon (read-out: LE_1a (EC50, range)) fell in the range of 5.01 to 35 nM; in the assay on HCV genotype 1b replicon (read-out: LE_1b (EC50, range)) it was 5.01 to 35 nM.

Turning to `CC[C@@H]1C[C@H](C)CC/C=C\[C@@H]2C[C@@]2(C(=O)NS(=O)(=O)C2(C)CC2)NC(=O)[C@@H]2C[C@@H](Oc3cc(-n4ccnc4)nc4cc(OC)ccc34)CN2C(=O)[C@H]1NC(=O)OC(C)(C)C(F)(F)F` [Compound 4281], the EC50 was in the range of 5.01 to 35 nM with HCV genotype 1a replicon (read-out: LE_1a (EC50, range)) and 5.01 to 35 nM in the assay with HCV genotype 1b replicon (read-out: LE_1b (EC50, range)).

For `[2H]C([2H])([2H])C1(S(=O)(=O)NC(=O)[C@@]23C[C@H]2/C=C\CC[C@@H](C)C[C@@H](CC)[C@H](NC(=O)OC(C)(C)C(F)F)C(=O)N2C[C@H](Oc4nccc5cc(OC)c(F)cc45)C[C@H]2C(=O)N3)CC1` [Compound 5515], the EC50 in the assay with HCV genotype 1a replicon (read-out: LE_1a (EC50, range)) was in the range of 1.01 to 5 nM; with HCV genotype 1b replicon (read-out: LE_1b (EC50, range)), 0.51 to 1 nM.

In the case of `[2H]C([2H])([2H])C1(S(=O)(=O)NC(=O)[C@@]23C[C@H]2/C=C\CC[C@@H](C)C[C@@H](CC)[C@H](NC(=O)OC(C)(C)C(C)(F)F)C(=O)N2C[C@H](Oc4nccc5cc(OC)c(F)cc45)C[C@H]2C(=O)N3)CC1` [Compound 5513], the EC50 in the assay with HCV genotype 1a replicon (read-out: LE_1a (EC50, range)) fell in the range of 1.01 to 5 nM; in the assay with HCV genotype 1b replicon (read-out: LE_1b (EC50, range)) it was 0.51 to 1 nM.

As to `[2H]C([2H])([2H])C1(S(=O)(=O)NC(=O)[C@@]23C[C@H]2/C=C\CC[C@@H](C)C[C@@H](CC)[C@H](NC(=O)OC(C)(C)C(C)(F)F)C(=O)N2C[C@H](Oc4nccc5cc(OCC)c(F)cc45)C[C@H]2C(=O)N3)CC1` [Compound 5519], the EC50 in the assay with HCV genotype 1a replicon (read-out: LE_1a (EC50, range)) lay in the range of 1.01 to 5 nM; in the assay on HCV genotype 1b replicon (read-out: LE_1b (EC50, range)), 0.51 to 1 nM.

Consider `CC[C@@H]1C[C@H](C)CC/C=C\[C@@H]2C[C@@]2(C(=O)NS(=O)(=O)C2CC2)NC(=O)[C@@H]2C[C@@H](Oc3nc4ccc(OC)cc4nc3C3CC3)CN2C(=O)[C@H]1NC(=O)OC(C)(C)C(F)(F)F` [Compound 4308], for which the concentration for a half-maximal effect (EC50) lay within 5.01 to 35 nM in the assay on HCV genotype 1a replicon (read-out: LE_1a (EC50, range)) and 5.01 to 35 nM in the assay with HCV genotype 1b replicon (read-out: LE_1b (EC50, range)).

`Cc1cn2c(n1)nc(O[C@@H]1C[C@H]3C(=O)N[C@]4(C(=O)NS(=O)(=O)C5(CF)CC5)C[C@H]4/C=C\CC[C@@H](C)C[C@@H](C)[C@H](NC(=O)OC(C)(C)C(F)(F)F)C(=O)N3C1)c1cc(Cl)ccc12` [Compound 6139]: the EC50 with HCV genotype 1a replicon (read-out: LE_1a (EC50, range)) fell in the range of 5.01 to 35 nM; in the assay on HCV genotype 1b replicon (read-out: LE_1b (EC50, range)), 1.01 to 5 nM.

Take `C[C@@H]1CC/C=C\[C@@H]2C[C@@]2(C(=O)NS(=O)(=O)C2(C)CC2)NC(=O)[C@@H]2C[C@@H](Oc3nc4nncn4c4ccccc34)CN2C(=O)[C@@H](NC(=O)OC(C)(C)C)[C@H](C)C1` [Compound 6120, tert-butyl((2R,6S,7R,9R,13aS,14aR,16aS,Z)-2-([1,2,4]triazolo[4,3-a]quinazolin-5-yloxy)-7,9-dimethyl-14a-(((1-methylcyclopropyl)sulfonyl)carbamoyl)-5,16-dioxo-1,2,3,5,6,7,8,9,10,11,13a,14,14a,15,16,16a-hexadecahydrocyclopropa[e]pyrrolo[1,2-a][1,4]diazacyclopentadecin-6-yl)carbamate]: the EC50 with HCV genotype 1a replicon (read-out: LE_1a (EC50, range)) was in the range of 35 to 145 nM; with HCV genotype 1b replicon (read-out: LE_1b (EC50, range)) it was 35 to 145 nM.

For the molecule `C[C@@H]1CC/C=C\[C@@H]2C[C@@]2(C(=O)NS(=O)(=O)C2(C)CC2)NC(=O)[C@@H]2C[C@@H](Oc3nccc4c5c(ccc34)CCO5)CN2C(=O)[C@@H](NC(=O)OC(C)(C)C(F)(F)F)[C@H](C)C1` [Compound 5497], the EC50 in the assay with HCV genotype 1a replicon (read-out: LE_1a (EC50, range)) is 5.01 to 35 nM; in the assay with HCV genotype 1b replicon (read-out: LE_1b (EC50, range)) it was 1.01 to 5 nM.
